This note sets out measurements from patent US6911454B1, “Method for potentiating primary drugs in treating multidrug resistant disease” (priority 1989, dated 2005).

Like-named read-outs stand apart in the source and are kept apart here.

Assay [1] deals with DX20 cancer cells. The assay can be described thus: modified MTT assay, drug sensitivity of DX20 cells. It counts as cell-based, human. To be noted: DX20 cells. The source says:
The MES-SA/DX20 cell line was established according to the development methods of Sikic et al., Resistance to Antineoplastic Drugs, Chap. 3, CRC Press, Ed. David Kessel, pp. 37-47 (1989). In vitro drug sensitivity testing consisted of two assay models, the modified MTT assay (Mossman, J. Immunolog. Methods, Vol. 65, pp. 55-63, 1983) and the colonogenic assay. In addition to this, the combinations were investigated in vivo in nude mice bearing the DX20 cell line. The MTT assay was chosen because of its practical advantages in large-scale screening. The assay involved cellular conversion of tetrazolium salt to a colored formazan serving as a measurement of cell viability.
In a given experiment, culture media, 50 microliters, containing 8,000-25,000 cells, depending on the proliferation rate of the cell line, was pipetted into each well of several 96-well microtiter plates. The cells were allowed to attach overnight. […] The cytotoxic drug, also at a concentration below that previously established as an IC50, was then added at decreasing concentrations by 25% to several half plate sections. The cells were allowed to grown for 72 hours. 100 microliters of media was then removed and 25 microliters of 5 mg/ml MTT (Sigma, St. Louis, Mo.) in phosphate buffered saline was added to each well. The plates were kept in an incubator at 37° C. and 5% CO2. After 2-3 hours of incubation, the extraction buffer containing 20% w/v SDS and 50% DMF was added and the plates again incubated overnight. The plates were read at a test wavelength of 570 nm on a multiwell spectrophotometer (Model MR 700, Dynatech Laboratories, Alexandria, Va.). Each drug combination was tested in triplicate. Percent survival was defined as percent of optical density (OD) of the drug-treated wells to that of the control detected by the spectrophotometer.
The in vitro drug sensitivity testing of ethyl fangchinoline consisted of two assay models, the modified MTT (Mossman 1983) and a colony formation assay in which a direct measure was taken by quantitation of colony formation. The MTT assay was chosen because of its practical advantages in large scale screening. The assay involves cellular conversion of tetrozolium salt to a colored formazan serving as a measurement of cell viability.
Two human cell lines were chosen as the primary targets of study in reversing multiple-drug resistance. The MES-SA, a sarcoma, and its resistant subline, DX-20, were kindly donated by Dr. B. Sikic (U of Stanford, Stanford, Calif.). The A2780, an ovarian cancer, and its resistant subline, A2780-ad10, were provided by Roswell Park Memorial Inst. (Buffalo, N.Y.).
Culture media, 50 ul containing 8,000 to 25,000 cells depending on the proliferation rate of the line, was pipetted into each of 96 wells in a flat bottom tissue plate. The cells were incubated overnight to allow adherence. One hundred ul of ethyl fangchinoline, at a concentration below that previously established as an independent IC50, was added to each experimental well. […] The plates were then incubated for 72 hours before MTT was added and the analysis of O.D. values interpreted by a multi-plate scanner (MR700, Dynatech).

Assay [2] concerns DX20 tumor. The experiment in a line: tumor measurements in nude mice bearing the DX20 tumor. It counts as in vivo. More on the design: unit not given here. The protocol:
(See FIG. 6). Tumor size was calculated using the formula (4 Pi/3) X*Y*2Z.
The study was done with 3-4 week old male balb-C nude mice. The animals were injected with DX20 1×10^7 cells.

Assay [3] has as its system resistant (K562-R7) cancel cells. The experiment in a line: doxorubicin fluorescence test by flow cytometry. It counts as cell-based. To be noted: FIG. 12; doxorubicin used alone.
Assay [4] relates to multidrug resistant human cancer (DX20). It counts as in vivo, mice. As to conditions: d-tetrandrine 0.5, 1, 1.5 mg injections; doxorubicin 5.5 mg per kg; about one month. The protocol: It is only important that they be administered sufficiently close together that the cancer is exposed to both simultaneously. For example, nude mice infected with a multidrug resistant human cancer were given 0.5 mg, 1 mg and 1.5 mg respectively in three separate injections, 72 hours apart.

The mark [5] stands for this setting: Day 7 Prior to Treatment (baseline).
The mark [6] stands for this setting: Day 24 After Treatment, d-tetrandrine days 6, 8, 10, doxorubicin 5.5 mg/kg day 12.

The term IC50 denotes the concentration that inhibits the measured activity by half. With ethyl fangchinoline, the half-maximal inhibitory concentration (IC50) in assay [1] (single agent, read-out: IC50 alone) was 6.5 µM.
Regarding `COc1cccc2c1C(=O)c1c(O)c3c(c(O)c1C2=O)C[C@@](O)(C(=O)CO)C[C@@H]3O[C@H]1C[C@H](N)[C@H](O)[C@H](C)O1` [doxorubicin], the “Tumor Measurements Depth” value in assay [2] (setting [5]) stood at 1.25; in assay [2] (setting [6]), 21.50. In addition, the “Tumor Measurements Length” value in assay [2] (setting [5]) is 3.50; in assay [2] (setting [6]), 24.50. Besides, the entries for the “Tumor Measurements Width” value in assay [2] (setting [5]) and in assay [2] (setting [6]) were 3.87 and 19.10, respectively. Besides, the “doxorubicin concentration (fluorescence) in resistant versus sensitive cells” value in assay [3] is “lower concentration of doxorubicin than does a sensitive cancer”. The IC50 in assay [1] (Homo sapiens, d-tetrandrine 2 × 10^−7 molar, read-out: IC50 doxorubicin in d-tetrandrine) turned out to be 0.66 µM; in assay [1] (Homo sapiens, d-tetrandrine 4 × 10^−7 molar, read-out: IC50 doxorubicin in d-tetrandrine), 0.36 µM; in assay [1] (Homo sapiens, ethyl fangchinoline 1 × 10^−6 molar, read-out: IC50 doxorubicin in ethyl fangchinoline) it was 0.48 µM; in assay [1] (Homo sapiens, ethyl fangchinoline 2 × 10^−7 molar, read-out: IC50 doxorubicin in ethyl fangchinoline), 0.47 µM; in assay [1] (Homo sapiens, ethyl fangchinoline 4 × 10^−7 molar, read-out: IC50 doxorubicin in ethyl fangchinoline), 0.16 µM; in assay [1] (Homo sapiens, single agent, read-out: IC50 alone), 5.4 µM. Moreover, in assay [4], the tumor outcome is “very large tumors which were unabated”.
